GI50 and TGI data for eight compounds are collected here from PubChem BioAssay (NCI).

Common to all, as to assay: NCI anticancer screen, dose series, 48 h
In assay [1] the test system is SK-MEL-5 melanoma.
Assay [2] concerns SW-620 colon.
Assay [3] deals with HT29 colon.
In assay [4] the test system is MCF7 breast.
Assay [5] relates to MDA-MB-435.
The test system of assay [6] is HCT-116 colon.
For assay [7], the system named is RXF 393 renal.
For assay [8], the system named is NCI-H522 lung.
The subject of assay [9] is 786-0 renal.
In assay [10] the test system is NCI/ADR-RES ovarian.

Values joined by “and” are separate entries in the source; they are usually repeats but may differ in a detail not shown here. Equal values may be shown once.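 Exposure lasted 48 hours, with cells grown in 96-well plates and compounds tested at five concentrations. GI50: concentration for 50% inhibition of growth. TGI marks complete inhibition of growth.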

In the case of `CC[C@H](NC(=O)[C@H](C)NC)C(=O)N1C[C@@H](O)C[C@H]1Cc1c(-c2[nH]c3cc(F)ccc3c2C[C@@H]2C[C@H](O)CN2C(=O)[C@H](CC)NC(=O)[C@H](C)NC)[nH]c2cc(F)ccc12`, the GI50 in [1] was 26.2 µM; in assay [2] it was more than 100 µM; in [3] it was 62 µM; in assay [4], more than 53.3 µM; in assay [6], more than 100 µM; in [7], 2.27 µM. The GI50 in assay [8] is 8.21 µM; in assay [9] it was more than 100 µM; in [10] it was more than 100 µM. For the same compound, the TGI in [1] is more than 53.8 µM; in assay [2], more than 100 µM; in assay [3], more than 100 µM; in [4] it was more than 100 µM; in assay [5], more than 100 µM; in assay [6], more than 100 µM. For the same compound, the TGI in assay [7] was more than 20.1 µM; in assay [8], 35.1 µM; in assay [9], more than 100 µM; in assay [10], more than 100 µM.
Take `CCN(CC)c1cc2c3c(c1)CCCN3CCC2`: the TGI in [1], in assay [2], in assay [3], in [4], in assay [5] and in [6] was more than 10 µM in each case. For the same compound, the TGI in [7], in assay [8], in assay [9] and in assay [10] was more than 10 µM throughout.
Turning to `O=c1c(Oc2ccc(F)cc2F)cc2cnc(NC3CCOCC3)nc2n1C1CCS(=O)(=O)CC1`, the GI50 in [1], in [2], in assay [3], in [4], in assay [5] and in [6] was more than 25 µM in each case. The GI50 in assay [7], in assay [8], in [9] and in [10] was more than 25 µM each time. Moreover, the TGI in [1], in assay [2], in assay [3], in assay [4], in assay [5] and in assay [6] was more than 25 µM each time. The TGI in [7], in assay [8], in [9] and in assay [10] was more than 25 µM in each case.
In the case of `CC(=O)[O-].CC(=O)[O-].[Pt+2].c1cscn1.c1cscn1`, the GI50 is more than 100 µM in assay [1]; 47.5 µM in assay [2]; more than 100 µM in assay [3]; 37.3 µM in [4]; more than 100 µM in assay [5]; 53.9 µM in [6]. Further, the GI50 in [7] is more than 100 µM; in assay [8], 20.8 µM; in [9], more than 100 µM; in [10] it was more than 100 µM. The TGI in [1], in [2], in assay [3], in assay [4], in assay [5] and in assay [6] was more than 100 µM in each case. Also, the TGI in assay [7] was more than 100 µM; in [8] it was 42.2 µM; in assay [9], more than 100 µM; in assay [10], more than 100 µM.
Take `Cc1nc2sc(C(=O)Nc3cccc(Cl)c3C)c(N)c2cc1C(=O)/C=C/c1ccccc1`: the GI50 was 0.572 µM in assay [1]; 0.206 µM in assay [2]; 0.178 µM in assay [3]; 0.192 µM in [4]; 0.111 µM in [5]; 0.186 µM in assay [6]. Further, the GI50 in assay [7] was 0.206 µM; in [8], 0.172 µM; in assay [9], 0.232 µM; in [10] it was 0.176 µM. In addition, the TGI was 1.43 µM in assay [1]; 1.32 µM in [2]; 0.888 µM in assay [3]; 3.32 µM in [4]; 0.263 µM in [5]; 0.707 µM in assay [6]. The TGI in assay [7] worked out at 0.801 µM; in assay [8], 0.999 µM; in assay [9] it was 0.907 µM; in assay [10], 0.656 µM.
Consider `O=c1ccn(C2OC(CO)C(O)C2F)c(=O)[nH]1` (stereo not drawn), for which the GI50 in [1], in [2], in assay [3], in [4], in assay [5] and in assay [6] was more than 1000 µM throughout. The GI50 in [7], in [8], in assay [9] and in assay [10] was more than 1000 µM throughout. Moreover, the TGI in assay [1], in assay [2], in [3], in assay [4], in [5] and in [6] was more than 1000 µM throughout. In addition, the TGI in [7], in assay [8], in assay [9] and in [10] was more than 1000 µM throughout.
Turning to `CSc1ccc(C2=NN(C(=O)c3ccc(F)cc3)C(c3ccc(F)cc3)C2)cc1` (stereo not drawn), the GI50 in assay [1] was 18.5 µM; in assay [2], 14.2 µM; in assay [3], 4.37 µM; in [4], 4.98 µM; in [5], 10.6 µM; in assay [6] it was 3.61 µM. Moreover, the GI50 was 4.8 µM in assay [7], 13.3 µM in assay [8], 15.5 µM in assay [9] and 16 µM in assay [10]. Moreover, the TGI was determined as 33.3 µM in assay [1]; 34.2 µM in [2]; 15.8 µM in [3]; 17.9 µM in [4]; 26.8 µM in [5]; 12.7 µM in assay [6]. For the same compound, the TGI in assay [7] was 20 µM; in assay [8], 27.7 µM; in [9], 30.7 µM; in assay [10], 33 µM.
Turning to `O=Cc1ccc(-c2cc(C=O)c(-c3cccs3)[nH]2)s1`, the GI50 is 40.5 µM in [1]; more than 100 µM in assay [2]; 7.36 µM in assay [4]; 43.7 µM in assay [5]; 64.2 µM in [6]; 23.3 µM in [7]. The results for the GI50 in assay [8], in [9] and in [10] were 19.6 µM, more than 100 µM and 68.3 µM, respectively. In addition, the TGI is 75 µM and > 100 µM in assay [1]; more than 100 µM in assay [2]; 75 µM in [3]; 75 µM and > 100 µM in [4]; 75 µM and > 100 µM in assay [5]; 75 µM and > 100 µM in assay [6]. In addition, the TGI in assay [7] is 75 µM and > 100 µM; in assay [8], 19.9 µM and 57.4 µM; in assay [9] it was 75 µM and > 100 µM; in [10], 75 µM and > 100 µM.
